Assay results taken from US20110183969A1, “ANTIFUNGAL COMBINATION THERAPY” (priority 2008, published 2011).
Values after ≈ are worked out from the molar mass of the structure shown.

How the values were obtained:
Assay in all cases: MIC (YAG medium)
Type in all cases: cell-based
[1] = system: Aspergillus flavus; conditions: YAG medium, MIC banded into grades; for MIC: Aspergillus flavus, read-out: MIC A. flavus (grade)
Experimental: (§1) Between 1 and 5 mgs of compound were accurately weighed out into a sterile Eppendorf tube. The compound was dissolved in DMSO to give a solution containing 5 mg/mL. Tubes were stored at −20° C. until required.
(§2) On the day of testing thawed solutions were vortex mixed to ensure homogeneity. 30 μL of solution was removed and added to 570 μL of sterile water in a separate sterile Eppendorf The thoroughly mixed solution was used to prepare a series of doubling dilutions in water, in a deep well plate. […] replicate plates were prepared using a Minitrak by aspirating 20 μL from each well into eleven clear polystyrene 96 well plates.
(§3) Spores of Aspergillus spp. (Aspergillus fumigatus [two strains], Aspergillus terreus [two strains], Aspergillus niger and Aspergillus flavus) were harvested from cultures grown on Sabarauds agar for 5 days, and resuspended in PBS/Tween 80 to approx 1×10^7 cfu/mL. Other filamentous fungi (Absidia corymbifera, Fusarium solani, Rhizomucor, Scedosporium spp., Trichophyton spp.), were grown on Sabarauds agar for 2-10 days and spores/hyphae resuspended in PBS/Tween to give approx 1×10^7 cfu/mL. Candida species (Candida albicans, Candida glabrata, Candida krusei, Candida parapsilosis and Candida tropicalis) were grown on Sabarauds agar, cells were harvested from the agar using a sterile loop and resuspended in PBS/Tween 80 to approx 1×10^6 cfu/mL. Each organism suspension was diluted in RPMI medium, containing 2% glucose and 0.135 M MOPS buffer (pH 7.0) to 0.5−2×10^4 cfu/mL for Aspergillus spp. and other filamentous fungi and 0.5-2×10^3 cfu/mL for yeast. 80 μL of an organism suspension was added to each well of the plate containing drug dilutions.
(§4) This produced MIC plates with a drug range 50-0.05 mg/L and organism inocula of 1-2×10^4 cfu/mL for Aspergillus spp. and other filamentous fungi and 1-2×10^3 cfu/mL for yeasts. All plates were incubated for 24-48 hrs at 35° C. Growth was assessed by monitoring the optical density at 485 nm for each well. The MIC of a compound is the lowest drug concentration that inhibits growth of an organism by >80% compared with a drug free control. MICs are recorded as mg/L. Other growth media can be used for susceptibility testing, and the activity of the described compounds can also be assessed in a medium comprising 1% glucose, 1% ammonium chloride and 0.5% yeast extract (YAG medium). To perform MIC tests in this medium, dilutions of compounds are prepared in microtitre plates as described above. Fungal strains to be tested are grown and harvested in an identical manner to that described above, each organism suspension is then diluted in YAG medium to 0.5-2×10^4 cfu/mL for Aspergillus spp. and other filamentous fungi and 0.5-2×10^3 cfu/mL for yeast. 80 μL of an organism suspension was added to each well of the plate containing drug dilutions. This produced MIC plates with a drug range 50-0.05 mg/L and organism inocula of 1-2×10^4 cfu/mL for Aspergillus spp. and other filamentous fungi and 1-2×10^3 cfu/mL for yeasts. All plates were incubated for 24 hrs at 35° C. Growth was assessed by monitoring the optical density at 485 nm for each well. The MIC of a compound is the lowest drug concentration that inhibits growth of an organism by >70% compared with a drug free control. MICs are recorded as mg/L. In cases where the MIC of an organism is […] mg/L the MIC is repeated using a concentration range of 0.5-0.0005 mg/L. MIC tests in YAG medium have more clear-cut endpoints and have slightly lower MICs than those performed in RPMI medium.
(§5) The following organisms were tested: Absidia corymbifera, Aspergillus flavus, Aspergillus fumigatus AF293 and AF210, Aspergillus niger, Aspergillus terreus AT4 and AT49, Candida albicans, Candida glabrata, Candida krusei, Candida parapsilosis, Candida tropicalis, Fusarium solani, Rhizomucor sp., Scedosporium apiospermum, Scedosporium prolificans, Trichophyton mentagrophytes, and Trichophyton rubrum.

[2] = system: Aspergillus fumigatus AF210; conditions: YAG medium, MIC banded into grades, AF210; for MIC: Aspergillus fumigatus, read-out: MIC A. fumigatus 210 (grade)
Experimental: as §1, §2, §3, §4, §5

[3] = system: Aspergillus fumigatus AF293; conditions: YAG medium, MIC banded into grades, AF293; for MIC: Aspergillus fumigatus, read-out: MIC A. fumigatus (grade)
Experimental: as §1, §2, §3, §4, §5

[4] = system: Aspergillus niger; conditions: YAG medium, MIC banded into grades; for MIC: Aspergillus niger, read-out: MIC A. niger (grade)
Experimental: as §1, §2, §3, §4, §5

[5] = system: Aspergillus terreus AT49; conditions: YAG medium, MIC banded into grades, AT49; for MIC: Aspergillus terreus, read-out: MIC A. terreus 49 (grade)
Experimental: as §1, §2, §3, §4, §5

[6] = system: Aspergillus terreus AT4; conditions: YAG medium, MIC banded into grades, AT4; for MIC: Aspergillus terreus, read-out: MIC A. terreus (grade)
Experimental: as §1, §2, §3, §4, §5

Compound	MIC [1] [µg/mL]	MIC [2] [µg/mL]	MIC [3] [µg/mL]	MIC [4] [µg/mL]	MIC [5] [µg/mL]	MIC [6] [µg/mL]	MIC A. flavus (grade) [1]	MIC A. fumigatus 210 (grade) [2]	MIC A. fumigatus (grade) [3]	MIC A. niger (grade) [4]	MIC A. terreus 49 (grade) [5]	MIC A. terreus (grade) [6]
Cc1cc(C)nc(N2CCN(c3ccc(NC(=O)C(=O)c4c(C5CCCCC5)cc5ccccn45)cc3)CC2)c1 [Example 60, 2-(2-Cyclohexyl-indolizin-3-yl)-N-{4-[4-(4,6-dimethyl-pyridin-2-yl)-piperazin-1-yl]-phenyl}-2-oxo-acetamide]	< 1	< 1	< 1	< 1	< 1	< 1						
O=C(Nc1ccc(N2CCN(c3cccc(CCO)n3)CC2)cc1)C(=O)c1c(-c2ccccc2)cc2ccccn12 [Example 88, N-(4-{4-[6-(2-hydroxy-ethyl)-pyridin-2-yl]-piperazin-1-yl}-phenyl)-2-oxo-2-(2-phenyl-indolizin-3-yl)-acetamide]	< 1	< 1	< 1	< 1	< 1	< 1						
CN1/C(=N/c2ccc(NC(=O)C(=O)c3c(-c4ccccc4)cc4ccccn34)cc2)OCC1(C)C [Example 8, 2-oxo-2-(2-phenyl-indolizin-3-yl)-N-{4-[3,4,4-trimethyl-oxazolidin-(2Z)-ylideneamino]-phenyl}-acetamide]	> 10	> 10	> 10	> 10	1 to 10 (≈ 2.14 to 21.4 µM)	> 10						
N-(4-{3-[(4,6-Dimethyl-pyridin-2-yl)-methyl-amino]-propyl}-phenyl)-2-oxo-2-(2-phenyl-indolizin-3-yl)-acetamide [Example 70]							3 (A grade of 3 represents an MIC of less than 1 mg/L)	3 (A grade of 3 represents an MIC of less than 1 mg/L)	3 (A grade of 3 represents an MIC of less than 1 mg/L)	3 (A grade of 3 represents an MIC of less than 1 mg/L)	3 (A grade of 3 represents an MIC of less than 1 mg/L)	3 (A grade of 3 represents an MIC of less than 1 mg/L)
CC(C)c1nc(C(C)(C)c2ccc(NC(=O)C(=O)c3c(-c4ccccc4)cc4ccccn34)cc2)cn1C [Example 16, N-{4-[1-(2-isopropyl-1-methyl-1H-imidazol-4-yl)-1-methyl-ethyl]-phenyl}-2-oxo-2-(2-phenyl-indolizin-3-yl)-acetamide]	< 1	1 to 10 (≈ 1.98 to 19.8 µM)	1 to 10 (≈ 1.98 to 19.8 µM)	1 to 10 (≈ 1.98 to 19.8 µM)	< 1	< 1						
O=C(Nc1ccc(N2CCN(c3ccc(CN4CCOCC4)cn3)CC2)cc1)C(=O)c1c(-c2ccccc2)cc2ccccn12 [Example 77, N-{4-[4-(5-morpholin-4-yl-methyl-pyridin-2-yl)-piperazin-1-yl]-phenyl}-2-oxo-2-(2-phenyl-indolizin-3-yl)-acetamide]							3 (A grade of 3 represents an MIC of less than 1 mg/L)	3 (A grade of 3 represents an MIC of less than 1 mg/L)	3 (A grade of 3 represents an MIC of less than 1 mg/L)	3 (A grade of 3 represents an MIC of less than 1 mg/L)	3 (A grade of 3 represents an MIC of less than 1 mg/L)	3 (A grade of 3 represents an MIC of less than 1 mg/L)
CC(C)(C)CN1CCN(c2ccc(NC(=O)C(=O)c3c(-c4ccccc4)cc4ccccn34)nc2)CC1 [Example 50, N-{5-[4-(2,2-Dimethyl-propyl)-piperazin-1-yl]-pyridin-2-yl}-2-oxo-2-(2-phenyl-indolizin-3-yl)-acetamide]	< 1	< 1	< 1	< 1	< 1	< 1						
Cc1cc(C)nc(N(C)CCCN(C)c2ccc(NC(=O)C(=O)c3c(-c4ccccc4)cc4ccccn34)cc2)c1 [Example 67, N-[4-({3-[(4,6-dimethyl-pyridin-2-yl)-methyl-amino]-propyl}-methyl-amino)-phenyl]-2-oxo-2-(2-phenyl-indolizin-3-yl)-acetamide]	< 1	< 1	< 1	< 1	< 1	< 1						
O=C(Nc1ccc(N2CCN(c3ccccn3)CC2)cc1)C(=O)c1c(-c2ccccc2)cc2ccccn12 [Example 41, 2-Oxo-2-(2-phenyl-indolizin-3yl)-N-[4-(4-pyridin-2-yl-piperizin-1-yl)-phenyl]-acetamide]							3 (A grade of 3 represents an MIC of less than 1 mg/L)	3 (A grade of 3 represents an MIC of less than 1 mg/L)	3 (A grade of 3 represents an MIC of less than 1 mg/L)	3 (A grade of 3 represents an MIC of less than 1 mg/L)	3 (A grade of 3 represents an MIC of less than 1 mg/L)	3 (A grade of 3 represents an MIC of less than 1 mg/L)
O=C(Nc1cnccc1N1CCN(CCc2ccco2)CC1)C(=O)c1c(-c2ccccc2)cc2ccccn12 [Example 38, N-{4-[4-(2-Furan-2-yl-ethyl)-piperazin-1-yl]-pyridin-3-yl}-2-oxo-2-(2-phenyl-indolizin-3-yl)-acetamide]	< 1	< 1	< 1	< 1	< 1	< 1						
O=C(Nc1ccc(C(=O)OC2CCOCC2)c(O)c1)C(=O)c1c(-c2ccccc2)cc2ccccn12 [Example 11, 2-hydroxy-4-[2-oxo-2-(2-phenyl-indolizin-3-yl)-acetylamino]-benzoic acid tetrahydro-pyran-4-yl ester]	< 1	< 1	< 1	< 1	< 1	< 1						
O=C(Nc1ccc(N2CCN(Cc3cccs3)CC2)cc1)C(=O)c1c(-c2ccccc2)cc2ccccn12 [Example 33, 2-Oxo-2-(2-phenylindolizin-3-yl)-N-[4-(4-thiophen-2-ylmethylpiperazin-1-yl)phenyl] acetamide]							3 (A grade of 3 represents an MIC of less than 1 mg/L)	3 (A grade of 3 represents an MIC of less than 1 mg/L)	3 (A grade of 3 represents an MIC of less than 1 mg/L)	3 (A grade of 3 represents an MIC of less than 1 mg/L)	3 (A grade of 3 represents an MIC of less than 1 mg/L)	3 (A grade of 3 represents an MIC of less than 1 mg/L)
Cc1cccc(N2CCN(c3ccc(NC(=O)C(=O)c4c(-c5ccccc5)cc5ccccn45)cc3)CC2)n1 [Example 43, N-{4-[4-(6-Methyl-pyridin-2-yl)-piperazin-1-yl]-phenyl}-2-oxo-2-(2-phenyl-indolizin-3-yl)-acetamide]	< 1	< 1	< 1	< 1	< 1	< 1						
